# Experimental data published in patent US20240398772A1, “OXASPIRO DERIVATIVE, AND PREPARATION METHOD THEREFOR AND USE THEREOF” (SHUJING BIOPHARMA CO., LTD, priority 2021, published 2024).
# Experiments:
# MOR = target: T1, MOR (Homo sapiens, UniProt P35372); experiment: Agonist test on MOR, cAMP level (CHO-K1/OP3 cells, cAMP assay kit); format: cell-based; conditions: for EC50: forskolin-stimulated cAMP, read-out: EC50 agonizing MOR receptor to affect cAMP level; for Emax: maximal effect of DAMGO is 100%, read-out: Emax agonizing MOR receptor to affect cAMP level
# T1 construct: expressed in transfected cells; host or cells: CHO-K1/OP3 (name from the earlier reading)
# T1 sequence (P35372 whole entry): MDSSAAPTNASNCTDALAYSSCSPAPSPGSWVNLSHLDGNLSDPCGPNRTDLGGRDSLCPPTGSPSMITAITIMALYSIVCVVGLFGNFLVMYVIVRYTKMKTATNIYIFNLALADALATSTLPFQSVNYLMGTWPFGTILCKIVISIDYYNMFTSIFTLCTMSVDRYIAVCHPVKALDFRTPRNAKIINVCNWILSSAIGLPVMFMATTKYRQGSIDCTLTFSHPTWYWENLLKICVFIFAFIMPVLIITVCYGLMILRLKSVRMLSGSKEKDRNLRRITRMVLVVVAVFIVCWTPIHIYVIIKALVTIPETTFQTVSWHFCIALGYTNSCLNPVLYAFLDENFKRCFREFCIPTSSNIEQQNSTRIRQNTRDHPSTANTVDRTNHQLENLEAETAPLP
# Procedure: 5×stimulation buffer was diluted to 1× with ddH2O, an appropriate amount of 500 mM IBMX (generally, the IBMX stock solution was prepared to be 500 mM, namely 1000×) was added to enable the final concentration of the IBMX to be 0.5 mM, and the mixture was mixed well for later use (after the IBMX was added, that precipitation occurred was normal, and the precipitate was dissolved by well mixing). It must be prepared right before use.
# 1.3.1.2 IBMX was dissolved with DMSO to prepare a 500 mM stock solution, which was aliquoted into 20 μL/tube and cryopreserved at −80° C. to avoid repetition of freezing and thawing.
# 1.3.1.3 Forskolin was dissolved with DMSO to prepare a 10 mM stock solution, which was aliquoted into 20 μL/tube and cryopreserved at −20° C. for later use.
# The CAMP standard substance in the kit returned to room temperature, and an equivalent amount of the experimental buffer was added according to the volume marked on the bottle label. The mixture was vortexed for mixing, aliquoted according to 50 μL/tube, and cryopreserved at −20° C. for later use.
# 5 mL ddH2O was added to a bottle of cAMP-d2 and a bottle of anti-cAMP-cryptate lyophilized powder, respectively, and the mixture was mixed well by gently turning the mixture upside down, aliquoted according to 125, 62.5, and 30 μL, and the like, and cryopreserved in the dark at −80° C.
# 1.3.2.1 Positive compound DAMGO and the test compound were serially diluted 4-fold to obtain 10 concentrations with Bravo using experimental buffer in a compound plate (Greiner-781280) at a starting concentration of 2 μM (from DMSO stock solution diluted with experimental buffer) and 20 μM (from DMSO stock solution diluted with experimental buffer), respectively.
# 1.3.2.2 Cells cryopreserved were thawed in a water bath at 37° C., the cell suspension was added to a centrifuge tube containing 10 mL of HBSS buffer, and the mixture was centrifuged at 750 rpm for 5 min. The supernatant was discarded, the pellet was resuspended in an appropriate amount of experimental buffer, and 20 μL of the pellet was counted using a cell counter. An appropriate amount of the cell suspension was diluted to 0.4×10^6 cells/mL, and 5 μL of the cell suspension was added to each well of a cell plate (the cell density was 2000 cells/well) and centrifuged at 1000 rpm for 1 min. 5 μL of the diluted compound was transferred to a cell plate (PerkinElmer-6008280) with Bravo, 5 μL of 2 μM DAMGO (the final concentration was 1 μM) was transferred to positive control wells, and an equal volume of experimental buffer was transferred to negative control wells, and the cell plate was centrifuged at 1000 rpm for 1 min. The cell plate was sealed and incubated at room temperature for 15 min. Forskolin was diluted to 0.2 mM with DMSO, 25.1 nL of which was transferred to a cell plate with Tecan-D300e, and the plate was centrifuged at 1000 rpm for 1 min, sealed, and incubated at room temperature for 45 min.
# The final concentration of the initial point was 712 nM.
# 1.3.2.4 Preparation of detection reagent: an appropriate amount of a cAMP-d2 stock solution and an anti-cAMP-cryptate stock solution was diluted with a lysis buffer according to the ratio of 1:20, the two solutions were then mixed well by turning the solutions upside down according to the ratio of 1:1, and vortexing was prohibited. 10 μL of the prepared detection reagent was added to a cell plate and centrifuged at 1000 rpm for 1 min. The cell plate was incubated at room temperature for 1 h in the dark. After the cell plate was centrifuged at 1000 rpm for 1 min, the plate was read using Envision. Excitation light at 340 nm, emission light at 620 nm and 665 nm.
# The formula for calculating the compound activation rate in the agonist test: […]
# [1] = system: pain threshold of a mouse; experiment: Mouse thermal radiation tail-flick method; format: in vivo, ICR mice; conditions: for Maximum analgesic percentage (% MPE): ICR mice, intragastric 10 mg/kg, Mean ± SEM, n = 9-10
# Procedure: • Intragastric administration at a dose of 10 mg/kg;
# ICR mice (normal grade, weighed 25-35 g, purchased from Shanghai Slac Laboratory Animal Co., Ltd.) were first mounted in a special plastic cylinder, their tails were exposed and allowed to droop naturally, and the measurements were made after the animals were calm. The radiation heat source could be an 8.75 mm projection lamp (32 W, adjustable). A light beam with the diameter of about 4 mm was emitted after being focused by a lens, which irradiated the skin at the junction of the middle third and the lower third of the tail (the light source and the skin at the tail must be closely attached); an electronic timer connected with the light source in parallel was used to synchronously record the irradiation duration, that is, when the irradiation started, a stopwatch was automatically started at the same time. When the tail of the animal obviously evaded, the timing was automatically stopped. The measured time interval was the tail flick latency. Mice with tail flick latency of 2-6 seconds were screened to participate in a grouping administration experiment. […] After a dose of a drug was administered to the mice, the pain threshold of the mice was measured at different times.
# After a dose of a drug was administered to the mice, the pain threshold of the mice was measured at 0.5 h, 1 h, 2 h, and 3 h (effect view of the analgesic effect is shown in FIG. 1). The formula for calculating the maximum analgesic percentage (% MPE) after administration was as follows: % MPE=(post-administration pain threshold−pre-administration pain threshold)/(15−pre-administration pain threshold)×100%.
SMILES,EC50 (MOR) [nM],Emax (MOR) [%],further results
"Fc1ccc(C2(CCNCc3cccc(Cl)c3)CCOC3(CCOCC3)C2)nc1 (stereo not shown) [Compound 11, N-(3-chlorobenzyl)-2-(4-(5-fluoropyridin-2-yl)-1,9-dioxaspiro[5.5]undecan-4-yl)ethan-1-amine]",7.75,100,–
"Fc1ccc([C@]2(CCN[C@H]3Cc4cccc(Br)c4C3)CCOC3(CCOCC3)C2)nc1 [Compound 10-1-1, (S)-4-bromo-N-(2-((R)-4-(5-fluoropyridin-2-yl)-1,9-dioxaspiro[5.5]undecan-4-yl)ethyl)-2,3-dihydro-1H-inden-2-amine]",0.8,104,–
"Fc1ccc(C2(CCN[C@H]3CCc4ccccc43)CCOC3(CCOCC3)C2)nc1 (stereo partly drawn) [Compound 3-1, (1S)-N-(2-(-4-(5-fluoropyridin-2-yl)-1,9-dioxaspiro[5.5]undecan-4-yl)ethyl)-2,3-dihydro-1H-inden-1-amine]",0.79,99.9,–
"Fc1ccc([C@]2(CCN[C@H]3Cc4cccc(Cl)c4C3)CCOC3(CCOCC3)C2)nc1 [Compound 17-1-1, (S)-4-chloro-N-(2-((R)-4-(5-fluoropyridin-2-yl)-1,9-dioxaspiro[5.5]undecan-4-yl)ethyl)-2,3-dihydro-1H-inden-2-amine]",0.64,102,–
"COc1ccc2c3c1O[C@H]1C(=O)CC[C@@]4(O)[C@@H](C2)N(C)CC[C@]314 [Oxycodone, reference compound]",–,95.2,Maximum analgesic percentage (% MPE) ([1]; 0.5 h after administration): 37.87 ± 12.44%; Maximum analgesic percentage (% MPE) ([1]; 2 h after administration): 3.63 ± 8.14%; Maximum analgesic percentage (% MPE) ([1]; 3 h after administration): −0.23 ± 6.48%
"Fc1ccc(C2(CCNC3CCc4ccc(Cl)cc43)CCOC3(CCOCC3)C2)nc1 (stereo not shown) [Compound 4, 6-chloro-N-(2-(4-(5-fluoropyridin-2-yl)-1,9-dioxaspiro[5.5]undecan-4-yl)ethyl)-2,3-dihydro-1H-inden-1-amine]",2.19,103,–
"Fc1ccc(C2(CCN[C@H]3CCc4c(Br)cccc43)CCOC3(CCOCC3)C2)nc1 (stereo partly drawn) [Compound 7-1, (1S)-4-bromo-N-(2-(4-(5-fluoropyridin-2-yl)-1,9-dioxaspiro[5.5]undecan-4-yl)ethyl)-2,3-dihydro-1H-inden-1-amine]",1.69,116,–
"Fc1ccc(C2(CCN[C@H]3CCc4ccc(F)cc43)CCOC3(CCOCC3)C2)nc1 (stereo partly drawn) [Compound 1-1, (1S)-6-fluoro-N-(2-(4-(5-fluoropyridin-2-yl)-1,9-dioxaspiro[5.5]undecan-4-yl)ethyl)-2,3-dihydro-1H-inden-1-amine]",0.44,103,–
"Cc1cccc2c1CC[C@@H]2NCCC1(c2ccc(F)cn2)CCOC2(CCOCC2)C1 (stereo partly drawn) [Compound 6-1, (1S)-N-(2-(4-(5-fluoropyridin-2-yl)-1,9-dioxaspiro[5.5]undecan-4-yl)ethyl)-4-methyl-2,3-dihydro-1H-inden-1-amine]",1.56,118,–
"Fc1ccc(C2(CCN[C@H]3CCc4c(F)cccc43)CCOC3(CCOCC3)C2)nc1 (stereo partly drawn) [Compound 2-1, (1S)-4-fluoro-N-(2-(4-(5-fluoropyridin-2-yl)-1,9-dioxaspiro[5.5]undecan-4-yl)ethyl)-2,3-dihydro-1H-inden-1-amine]",23.5,101,–
"Fc1ccc(C2(CCN[C@H]3CCc4c(Cl)cccc43)CCOC3(CCOCC3)C2)nc1 (stereo partly drawn) [Compound 5-1, (1S)-4-chloro-N-(2-(4-(5-fluoropyridin-2-yl)-1,9-dioxaspiro[5.5]undecan-4-yl)ethyl)-2,3-dihydro-1H-inden-1-amine]",1.33,111,–
"Fc1ccc(C2(CCNCc3cccc(Cl)c3Cl)CCOC3(CCOCC3)C2)nc1 (stereo not shown) [Compound 13, N-(2,3-dichlorobenzyl)-2-(4-(5-fluoropyridin-2-yl)-1,9-dioxaspiro[5.5]undecan-4-yl)ethan-1-amine]",17.3,78.9,–
"Fc1ccc(C2(CCNCc3cccc(Cl)c3F)CCOC3(CCOCC3)C2)nc1 (stereo not shown) [Compound 14, N-(3-chloro-2-fluorobenzyl)-2-(4-(5-fluoropyridin-2-yl)-1,9-dioxaspiro[5.5]undecan-4-yl)ethan-1-amine]",24.2,88.1,–
"Fc1ccc(C2(CCNC3Cc4cccc(Cl)c4C3)CCOC3(CCOCC3)C2)nc1 (stereo not shown) [Compound 17, 4-chloro-N-(2-(4-(5-fluoropyridin-2-yl)-1,9-dioxaspiro[5.5]undecan-4-yl)ethyl)-2,3-dihydro-1H-inden-2-amine]",2.14,93.8,–
"Cc1c(Cl)cccc1CNCC[C@@]1(c2ccc(F)cn2)CCOC2(CCOCC2)C1 [Compound 12-1, (R)—N-(3-chloro-2-methylbenzyl)-2-(4-(5-fluoropyridin-2-yl)-1,9-dioxaspiro[5.5]undecan-4-yl)ethan-1-amine]",1.29,93.8,"Maximum analgesic percentage (% MPE) ([1]; 0.5 h after administration): 99.48 ± 0.52 %; Maximum analgesic percentage (% MPE) ([1]; 1 h after administration): 86.20 ± 9.32 %; Maximum analgesic percentage (% MPE) ([1]; 2 h after administration): 89.98 ± 10.02 %; Maximum analgesic percentage (% MPE) ([1]; 3 h after administration): 78.89 ± 10.05 %; Maintenance of the analgesic effect compared with oxycodone ([1]; mouse tail flick, 0.5-3 h after administration): maintained for a longer period of time; Drug effect compared with oxycodone ([1]; mouse tail flick, same dose (10 mg/kg intragastric)): better drug effect than oxycodone"
"Clc1cccc2c1CCC2NCCC1(c2ccccn2)CCOC2(CCOCC2)C1 (stereo not shown) [Compound 16, 4-chloro-N-(2-(4-(pyridin-2-yl)-1,9-dioxaspiro[5.5]undecan-4-yl)ethyl)-2,3-dihydro-1H-inden-1-amine]",2.4,102,–
